Measured values from patent US20240264150A1, “METHODS FOR ASSIGNING A PHENOTYPIC SIGNATURE FOR DIAGNOSTIC AND THERAPEUTIC APPLICATIONS” (DEUTSCHES ZENTRUM FÜR NEURODEGENERATIVE ERKRANKUNGEN E.V. …, priority 2020, published 2024).

Experiments:
Assay type in all cases: cell-based, human
[1] = tested on: inflammasome activation by LPS+ATP; assay: Benchmark experiment, 34-plex Luminex cytokine assay; conditions: for IL1b release (Luminex): LPS+ATP
Description: (§1) FIG. 24: Added-Value-1. Higher precision and accuracy of the present technology compared to Luminex cytokine assays. We tested the IL1beta- and TNFalpha release performance on the present assay platform (integrated as HTRF assays from cisbio/PerkinElmer into the inventive workflow) (B) in comparison to the Luminex cytokine assay technology (A). […] (2) Due to its higher precision and accuracy, the inventive technology allowed to disclose distinct compound (Cmpd) effects on donor-specific responses which was not achieved by the Luminex technology despite its higher nominal assay ranges as indicated by the upper and lower LoD's (tables on the left in A, B). (3) Despite higher nominal assay ranges of Luminex cytokine tests compared to present technology cytokine release LoD's (dotted lines), donor-specific response ranges were solely resolved by the inventive technology and could not be identified by the Luminex assay. (4) Despite higher nominal assay ranges of Luminex cytokine tests compared to present technology cytokine release LoD's, the inventive technology covered a larger assay window as indicated by the ovals on the TNFa-release box plot y-axes in (A) and (B).
(§2) To benchmark the inventive technology in the context of established state-of-the-art cytokine assays in the field of innate immune response analyses, a product benchmarking experiment was conducted. Towards this end, a 34-plex, off-the-shelf Luminex cytokine assay kit was tested in comparison to the present assay platform which in this embodiment integrates cytokine release data with image-based readout analyses leading to increased knowledge and added scientific value.
(§3) In the benchmarking experiment, innate immune reactions were assessed by classical cytokine release assays, i.e. the Luminex assay technology, and compared to the present platform which allows an in-depth analysis of immune responses by the combination and integration of cytokine release data and image-based multi-parametric readouts. Since the present assay platform represents a functional assay, the following conditions were analyzed, untreated, LPS-priming and priming-activation by LPS+ATP. Furthermore, the effects of selected reference compounds on the innate immune responses were tested, i.e. CRID3/MCC950 (NLRP3 inflammasome inhibitor), P22077 (ubiquitin protease inhibitor), 4SC202/Domatinostat (class 1 HDAC inhibitor), MI-2 (MALT1 inhibitor, NLRP3 inhibitor), A438079 (P2X7 receptor antagonist), VX-765 (CASP1 inhibitor) and Z-VAD-OH-FMK (pan-CASP inhibitor). The selection of the reference compounds was based on compound-specific effects on captured phenotypes obtained by the present technology (Table 3). Captured phenotypes obtained by multi-parametric and image-based readout constitute an added value provided by the present technology.

[2] = tested on: inflammasome activation by LPS+ATP; assay: Benchmark experiment, present assay platform (HTRF cytokine release plus image-based multi-parametric readouts), LPS priming and LPS+ATP activation; conditions: for TNFa-positive cells percentage: LPS and LPS_Activator conditions, vs DMSO; for inflammasome activation / percentage of IL1beta-positive cells / IL1beta release: LPS+ATP (LPS_Activator); for IL1beta release: vs DMSO control
Description: as §1, §2, §3

PBMC = assay: De-risking of cyclooxygenase (COX)-modulators (pain-killers) in the PBMC test system: image-based and supernatant cytokine readouts; conditions: for alteration of the collective phenotypic signature: 54 COX-modulators, three independent experiments, normalized to untreated control
Description: 54 pain-killers were tested in three independent experiments. […] The results were normalized to the untreated control group. Image-based assay read outs: a) “Active”, ratio of cells presenting mounted inflammasome, b) “TNFaPosRate”, ratio of cells showing intracellular TNFalpha expression, c) “TNFa specs/cell”, number of TNFalpha spots within TNFalpha positive cells, d) “Cells”, total number of cells. Homogenous assay read outs: e) “TNFa see”, TNFalpha concentration in the supernatant in ng/ml, f) “IL1b”, IL1beta concentration in the supernatant in ng/ml.
54 compounds were tested, which are known as cyclooxygenase (COX)-Modulators. Most of the compounds were already on market or in drug development process. A unique collective phenotypic signature of this drug class was identified. There was no alteration of assay parameters, meaning that common Cox-modulators should have no effect on the innate immune response in the test system provided by the present invention. […] Bufexamac was withdrawn from market 2010 due to allergic reaction and was further proposed in 2017 as co-treatment agent (TNFa binder) for modulators of TNFa synthesis. […] Xanthohumol, a chalcone isolated from Humulus lupus, is currently in clinical trial phase 1. Currently, there is no information about induced adverse effects.
The adverse effects of all three compounds were not identified during the safety/toxicity assessment in preclinical lead optimization or in clinical trials. Current safety testing during preclinical drug development was not able to detect the adverse modulation of innate immune response.

| Molecule | IL1b release (Luminex) [1] | inflammasome activation ([2]; image-based) | percentage of IL1beta-positive cells ([2]; image-based) | IL1beta release [2] | alteration of the collective phenotypic signature (PBMC) | other results |
| --- | --- | --- | --- | --- | --- | --- |
| COCCOc1nc(-c2ccc(Cl)c(Cl)c2)n(-c2ccc(NC(=O)CCl)cc2)n1 [MI-2] | block | complete block | marked increase | complete block | – | TNFa release (Luminex) [1]: partial block of TNFa release with limited resolution; TNFa-positive cells percentage [2]: not affected; percentage of TNFa-multispot-positive cells ([2]; image-based): robust increase; TNFa release ([2]; present assay): partial block |
| Z-VAD-OH-FMK | block | did not show any effect | low percentage | block | – | – |
| CC(C)(O)c1coc(S(=O)(=O)NC(=O)Nc2c3c(cc4c2CCC4)CCC3)c1 [CRID3, CRID3/MCC950] | block | complete block | marked increase | complete block | – | – |
| Clc1cccc(-c2nnnn2Cc2cccnc2)c1Cl [A-438079] | block | complete block | marked increase | block | – | TNFa-positive cells percentage [2]: no impact |
| COc1cc(O)c(CC=C(C)C)c(O)c1C(=O)/C=C/c1ccc(O)cc1 [Xanthohumol] | – | – | – | – | show alteration of the collective phenotypic signature | – |
| CCCCOc1ccc(CC(=O)NO)cc1 [Bufexamac] | – | – | – | – | show alteration of the collective phenotypic signature | TNFa binder effect (PBMC): effect was proofed |
| CC(C(=O)O)c1ccc(C(=O)c2cccs2)cc1 (centres unmarked) [Subrofen] | – | – | – | – | show alteration of the collective phenotypic signature | cytokine release (II. 1b) (PBMC; supernatant): strong decrease |
